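Cells were grown in 96-well plates and exposed to each compound for 48 hours at five concentrations; endpoints were interpolated linearly between bracketing concentrations, or set to the highest concentration if not reached. At the TGI there is no net growth.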 *1 amine or outer side, *2 acyl side, *3 side chain or, on linkers, in order; H or OH if unused. Where a SMILES comes first, the peptide text is derived from it. [ ]: non-standard residue; d: D form. The star is where a group is joined. ξ: configuration not given here. X53 = CC(C)C[C@H](N[*:1])C1=N[C@H](C(=O)[*:2])CS1; Ile(3ξ) = CCC(C)[C@H](N)C(=O)O; Allyl(1,1-Me2) = C=CC(C)(C)*
Experiments:
Assay in all cases: inhibition of tumour cell growth, NCI panel, 48 h
786-0 renal = system: 786-0 renal
A498 renal = system: A498 renal
A549 NSCLC = system: A549 NSCLC
ACHN renal = system: ACHN renal
BT-549 breast = system: BT-549 breast
CAKI-1 renal = system: CAKI-1 renal
COLO 205 colon = system: COLO 205 colon
DU-145 prostate = system: DU-145 prostate
EKVX NSCLC = system: EKVX NSCLC
HCC-2998 colon = system: HCC-2998 colon
HCT-116 colon = system: HCT-116 colon
HCT-15 colon = system: HCT-15 colon
HL-60(TB) leukemia = system: HL-60(TB) leukemia
HOP-62 NSCLC = system: HOP-62 NSCLC
HOP-92 NSCLC = system: HOP-92 NSCLC
HS 578T breast = system: HS 578T breast
HT29 colon = system: HT29 colon
IGROV1 ovarian = system: IGROV1 ovarian
K-562 leukemia = system: K-562 leukemia
KM12 colon = system: KM12 colon
LOX IMVI melanoma = system: LOX IMVI melanoma
M14 melanoma = system: M14 melanoma
MALME-3M melanoma = system: MALME-3M melanoma
MCF7 breast = system: MCF7 breast
MDA-MB-231 breast = system: MDA-MB-231 breast
MDA-MB-435 = system: MDA-MB-435
MDA-N = system: MDA-N
MOLT-4 leukemia = system: MOLT-4 leukemia
NCI-H226 lung = system: NCI-H226 lung
NCI-H460 lung = system: NCI-H460 lung
NCI-H522 lung = system: NCI-H522 lung
NCI/ADR-RES ovarian = system: NCI/ADR-RES ovarian
OVCAR-3 ovarian = system: OVCAR-3 ovarian
OVCAR-4 ovarian = system: OVCAR-4 ovarian
OVCAR-8 ovarian = system: OVCAR-8 ovarian
PC-3 prostate = system: PC-3 prostate
RPMI-8226 leukemia = system: RPMI-8226 leukemia
RXF 393 renal = system: RXF 393 renal
SF-268 CNS = system: SF-268 CNS
SF-295 CNS = system: SF-295 CNS
SF-539 CNS = system: SF-539 CNS
SK-MEL-2 melanoma = system: SK-MEL-2 melanoma
SK-MEL-28 melanoma = system: SK-MEL-28 melanoma
SK-MEL-5 melanoma = system: SK-MEL-5 melanoma
SK-OV-3 ovarian = system: SK-OV-3 ovarian
SN12C renal = system: SN12C renal
SNB-19 CNS = system: SNB-19 CNS
SNB-75 CNS = system: SNB-75 CNS
SR leukemia = system: SR leukemia
SW-620 colon = system: SW-620 colon
T-47D breast = system: T-47D breast
TK-10 renal = system: TK-10 renal
U251 CNS = system: U251 CNS
UACC-257 melanoma = system: UACC-257 melanoma
UACC-62 melanoma = system: UACC-62 melanoma
UO-31 renal = system: UO-31 renal
CCRF-CEM leukemia = system: CCRF-CEM leukemia
NCI-H23 lung = system: NCI-H23 lung
OVCAR-5 ovarian = system: OVCAR-5 ovarian

FC(F)(F)c1ccc2c(c1)nc(-c1ccccc1)n2CC1CCCN2CCCCC12 (stereo not drawn)
TGI (786-0 renal): 30.7 µM | TGI (A498 renal): 69.1 µM | TGI (A549 NSCLC): > 100 µM | TGI (ACHN renal): 56.5 µM | TGI (BT-549 breast): 34.9 µM | TGI (CAKI-1 renal): > 100 µM | TGI (COLO 205 colon): 26.3 µM | TGI (DU-145 prostate): > 100 µM | TGI (EKVX NSCLC): > 100 µM | TGI (HCC-2998 colon): 32.3 µM | TGI (HCT-116 colon): 30.6 µM | TGI (HCT-15 colon): 64 µM | TGI (HL-60(TB) leukemia): 33.8 µM | TGI (HOP-62 NSCLC): > 100 µM | TGI (HOP-92 NSCLC): 65.8 µM | TGI (HS 578T breast): 33.9 µM | TGI (HT29 colon): 38.5 µM | TGI (IGROV1 ovarian): 50.4 µM | TGI (K-562 leukemia): 58.3 µM | TGI (KM12 colon): 66.5 µM | TGI (LOX IMVI melanoma): 29.1 µM | TGI (M14 melanoma): 31.9 µM | TGI (MALME-3M melanoma): 27.2 µM | TGI (MCF7 breast): 38.8 µM | TGI (MDA-MB-231 breast): 29.4 µM | TGI (MDA-MB-435): 42.3 µM | TGI (MDA-N): 36.2 µM | TGI (MOLT-4 leukemia): > 100 µM | TGI (NCI-H226 lung): 65.9 µM | TGI (NCI-H460 lung): 39.3 µM | TGI (NCI-H522 lung): 28.7 µM | TGI (NCI/ADR-RES ovarian): 34.3 µM | TGI (OVCAR-3 ovarian): 40.1 µM | TGI (OVCAR-4 ovarian): > 100 µM | TGI (OVCAR-8 ovarian): 37.9 µM | TGI (PC-3 prostate): 34.1 µM | TGI (RPMI-8226 leukemia): > 100 µM | TGI (RXF 393 renal): 75.5 µM | TGI (SF-268 CNS): 33.5 µM | TGI (SF-295 CNS): 31.7 µM | TGI (SF-539 CNS): 31 µM | TGI (SK-MEL-2 melanoma): 29.3 µM | TGI (SK-MEL-28 melanoma): 35.3 µM | TGI (SK-MEL-5 melanoma): 28.1 µM | TGI (SK-OV-3 ovarian): 37.3 µM | TGI (SN12C renal): 45.5 µM | TGI (SNB-19 CNS): > 100 µM | TGI (SNB-75 CNS): 50.8 µM | TGI (SR leukemia): 49.2 µM | TGI (SW-620 colon): 69.9 µM | TGI (T-47D breast): 71.7 µM | TGI (TK-10 renal): 41.8 µM | TGI (U251 CNS): 56.2 µM | TGI (UACC-257 melanoma): 31.8 µM | TGI (UACC-62 melanoma): 31.2 µM | TGI (UO-31 renal): 1.16 µM

C=CC(C)(C)OC[C@@H]1NC(=O)CNC(=O)[C@@H]2CCCN2C(=O)[C@H](C(C)CC)NC(=O)[C@@H]2CSC(=N2)[C@H](CC(C)C)NC1=O (stereo partly drawn) (cyclo(GS(Allyl(1,1-Me2))[X53][Ile(3ξ)]P))
TGI (786-0 renal): > 100 µM | TGI (A498 renal): > 100 µM | TGI (A549 NSCLC): > 100 µM | TGI (ACHN renal): > 100 µM | TGI (BT-549 breast): > 100 µM | TGI (CAKI-1 renal): > 100 µM | TGI (CCRF-CEM leukemia): > 100 µM | TGI (COLO 205 colon): > 100 µM | TGI (DU-145 prostate): > 100 µM | TGI (EKVX NSCLC): > 100 µM | TGI (HCC-2998 colon): > 100 µM | TGI (HCT-116 colon): > 100 µM | TGI (HCT-15 colon): > 100 µM | TGI (HL-60(TB) leukemia): 64.4 µM | TGI (HOP-62 NSCLC): > 100 µM | TGI (HOP-92 NSCLC): > 100 µM | TGI (HS 578T breast): > 100 µM | TGI (HT29 colon): > 100 µM | TGI (IGROV1 ovarian): > 100 µM | TGI (K-562 leukemia): > 100 µM | TGI (KM12 colon): > 100 µM | TGI (LOX IMVI melanoma): > 100 µM | TGI (M14 melanoma): > 100 µM | TGI (MALME-3M melanoma): > 100 µM | TGI (MCF7 breast): > 100 µM | TGI (MDA-MB-231 breast): > 100 µM | TGI (MDA-MB-435): > 100 µM | TGI (MDA-N): > 100 µM | TGI (MOLT-4 leukemia): 76.1 µM | TGI (NCI-H226 lung): > 100 µM | TGI (NCI-H23 lung): > 100 µM | TGI (NCI-H460 lung): > 100 µM | TGI (NCI-H522 lung): > 100 µM | TGI (NCI/ADR-RES ovarian): > 100 µM | TGI (OVCAR-3 ovarian): > 100 µM | TGI (OVCAR-4 ovarian): > 100 µM | TGI (OVCAR-5 ovarian): > 100 µM | TGI (OVCAR-8 ovarian): > 100 µM | TGI (PC-3 prostate): > 100 µM | TGI (RPMI-8226 leukemia): 94.1 µM | TGI (RXF 393 renal): > 100 µM | TGI (SF-268 CNS): > 100 µM | TGI (SF-295 CNS): > 100 µM | TGI (SF-539 CNS): > 100 µM | TGI (SK-MEL-2 melanoma): > 100 µM | TGI (SK-MEL-5 melanoma): > 100 µM | TGI (SK-OV-3 ovarian): > 100 µM | TGI (SN12C renal): > 100 µM | TGI (SNB-19 CNS): > 100 µM | TGI (SNB-75 CNS): > 100 µM | TGI (SR leukemia): > 100 µM | TGI (T-47D breast): > 100 µM | TGI (TK-10 renal): > 100 µM | TGI (U251 CNS): > 100 µM | TGI (UACC-257 melanoma): > 100 µM | TGI (UACC-62 melanoma): > 100 µM | TGI (UO-31 renal): > 100 µM

Source: PubChem BioAssay (NCI)
